These results are taken from patent US6500624B1, “Kainate-binding, human CNS receptors of the EAA3 family” (NPS Allelix Corp., priority 1992, dated 2002).

In this experiment the target is T1, human EAA3a receptor (Homo sapiens, UniProt P39086).
T1 construct: To provide the entire coding region of the receptor; expressed in transfected cells; host or cells: COS-1 (monkey, ATCC CRL 1650), transient transfection with pcDNAIA/humEAA3a; membrane preparation
The experiment in a line: NMDA binding to membranes of EAA3a-producing COS cells. Conditions: EAA3a-producing COS cell membranes.

T1 sequence (P39086 31-905 isoform P39086-2 limits assumed): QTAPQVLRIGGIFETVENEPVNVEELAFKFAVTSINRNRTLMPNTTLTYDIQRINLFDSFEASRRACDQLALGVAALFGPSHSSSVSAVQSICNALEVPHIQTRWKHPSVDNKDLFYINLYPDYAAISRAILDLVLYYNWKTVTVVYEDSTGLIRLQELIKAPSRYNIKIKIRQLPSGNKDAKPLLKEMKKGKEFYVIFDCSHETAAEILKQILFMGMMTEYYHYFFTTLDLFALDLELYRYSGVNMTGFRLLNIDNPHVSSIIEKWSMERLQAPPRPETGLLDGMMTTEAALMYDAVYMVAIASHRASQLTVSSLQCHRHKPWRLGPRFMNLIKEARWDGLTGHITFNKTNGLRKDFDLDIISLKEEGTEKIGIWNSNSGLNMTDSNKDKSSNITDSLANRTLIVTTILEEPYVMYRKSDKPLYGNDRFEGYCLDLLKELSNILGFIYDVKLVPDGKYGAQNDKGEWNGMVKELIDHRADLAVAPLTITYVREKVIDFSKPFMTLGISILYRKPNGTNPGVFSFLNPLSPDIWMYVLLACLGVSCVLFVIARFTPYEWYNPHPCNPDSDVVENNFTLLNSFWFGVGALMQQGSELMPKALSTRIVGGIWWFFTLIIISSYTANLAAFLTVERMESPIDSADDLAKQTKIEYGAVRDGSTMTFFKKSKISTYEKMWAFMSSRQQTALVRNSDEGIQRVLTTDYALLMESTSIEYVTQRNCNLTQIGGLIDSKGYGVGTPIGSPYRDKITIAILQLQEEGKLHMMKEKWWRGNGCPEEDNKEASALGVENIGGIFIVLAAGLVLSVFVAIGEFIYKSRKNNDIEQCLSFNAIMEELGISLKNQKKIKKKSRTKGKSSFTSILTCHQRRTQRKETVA

In the case of `CN[C@H](CC(=O)O)C(=O)O` [NMDA, N-methyl-D-aspartate], the “binding of NMDA” value is recorded as “little or no demonstrable binding”.
